The target in experiment [1] is T1, RIPK2 (Homo sapiens, UniProt O43353).
T1 construct: purchased Promega
Description: RIPK2 kinase inhibition assay (ADP-Glo). It counts as biochemical. The following applies: mean ± SD from two separate experiments. How it is done: RIPK2 kinase activity was analysed using the ADP-Glo™ Assay Kit (RIPK2 Kinase Enzyme System, Promega, USA). Reactions were performed according to the instructions. Specific signal was calculated by subtracting values in the wells without protein and inhibitor from the values in the test wells.
Background: In ADP-Glo the light output rises with the ADP produced.

The target of experiment [2] is T1, RIPK2. The experiment can be described thus: Lipophilic ligand efficiency (LipE). The following applies: LipE = pIC50 − ClogP.
In the next experiment the target is T2, RIPK1 (Homo sapiens, UniProt Q13546).
T2 sequence (Q13546 1-671): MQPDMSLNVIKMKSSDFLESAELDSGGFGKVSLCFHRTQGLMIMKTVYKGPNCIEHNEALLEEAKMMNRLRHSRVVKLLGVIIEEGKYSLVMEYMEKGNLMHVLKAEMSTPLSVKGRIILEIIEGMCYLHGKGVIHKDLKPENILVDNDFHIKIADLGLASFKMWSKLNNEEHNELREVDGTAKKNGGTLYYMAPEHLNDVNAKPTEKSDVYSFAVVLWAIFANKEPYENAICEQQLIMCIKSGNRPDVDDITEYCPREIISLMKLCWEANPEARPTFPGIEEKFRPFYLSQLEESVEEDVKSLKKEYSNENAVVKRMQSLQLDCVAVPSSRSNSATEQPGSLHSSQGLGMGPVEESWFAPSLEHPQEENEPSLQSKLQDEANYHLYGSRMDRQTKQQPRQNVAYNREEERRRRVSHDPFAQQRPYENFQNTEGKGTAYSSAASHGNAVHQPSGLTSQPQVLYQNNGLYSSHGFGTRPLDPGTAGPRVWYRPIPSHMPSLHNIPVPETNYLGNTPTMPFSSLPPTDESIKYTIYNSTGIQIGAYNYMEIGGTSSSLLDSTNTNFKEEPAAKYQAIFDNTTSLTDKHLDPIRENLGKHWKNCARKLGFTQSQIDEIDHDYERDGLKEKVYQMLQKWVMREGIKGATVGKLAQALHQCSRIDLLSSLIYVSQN
The experiment can be described thus: RIPK1 inhibition rate at 1 µM. It counts as biochemical. How it is done:
Table 4. Selectivity, ClogP and LipE of compound 14, 15, 21, 32, 36. | column: RIPK1 IR@1µM (%)

This is an account of results in PMC9683047, “Design, synthesis and biological evaluation of 4-aminoquinoline derivatives as receptor-interacting protein kinase 2 (RIPK2) inhibitors” (Journal of Enzyme Inhibition and Medicinal Chemistry, 2022).

T1 sequence (O43353 whole entry): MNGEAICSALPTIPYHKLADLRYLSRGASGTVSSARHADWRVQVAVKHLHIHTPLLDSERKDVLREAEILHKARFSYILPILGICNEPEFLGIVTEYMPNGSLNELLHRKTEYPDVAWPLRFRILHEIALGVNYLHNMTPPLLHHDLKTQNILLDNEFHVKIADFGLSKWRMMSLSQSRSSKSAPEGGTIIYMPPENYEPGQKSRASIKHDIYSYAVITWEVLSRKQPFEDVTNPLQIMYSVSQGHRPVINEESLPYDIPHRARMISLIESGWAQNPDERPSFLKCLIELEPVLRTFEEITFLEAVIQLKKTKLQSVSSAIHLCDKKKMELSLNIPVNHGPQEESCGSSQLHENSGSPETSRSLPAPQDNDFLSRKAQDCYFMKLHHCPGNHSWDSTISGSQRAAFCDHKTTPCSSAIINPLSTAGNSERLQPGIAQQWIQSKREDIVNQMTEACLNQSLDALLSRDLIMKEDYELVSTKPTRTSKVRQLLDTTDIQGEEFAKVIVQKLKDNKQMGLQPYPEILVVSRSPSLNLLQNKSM

For `Brc1ccc2nccc(Nc3ccc4[nH]ccc4c3)c2c1` [Compound 13, 6-Bromo-N-(1H-indol-5-yl)quinolin-4-amine], the IC50 against RIPK2 [1] was found to be 118 ± 21.5 nM. On RIPK2 [2], this molecule came in with a LipE of 2.82.
The corresponding values for `Brc1ccc2nccc(Nc3ccc4ncsc4c3)c2c1` [Compound 11, N-(6-bromoquinolin-4-yl)benzo[d]thiazol-6-amine] are 82.3 ± 12.2 nM and 3.21.
Take `Cc1nn(C)cc1-c1ccc2nccc(Nc3ccc4scnc4c3)c2c1` [Compound 23, N-(6–(1,3-dimethyl-1H-pyrazol-4-yl)quinolin-4-yl)benzo[d]thiazol-5-amine]: at RIPK2 [1], the IC50 is 9.5 ± 3.7 nM. On RIPK2 [2], the LipE was determined as 2.92.
In the case of `Brc1ccc2nccc(Nc3ccccn3)c2c1` [Compound 7, 6-Bromo-N-(pyridin-2-yl)quinolin-4-amine], the IC50 against RIPK2 [1] was > 1000 nM.
Molecule `c1cc(Nc2ccc3scnc3c2)c2cc(-c3cn[nH]c3)ccc2n1` [Compound 20, N-(6-(1H-pyrazol-4-yl)quinolin-4-yl)benzo[d]thiazol-5-amine] registered an IC50 against RIPK2 [1] of 8.2 ± 1.6 nM. Moreover, at RIPK2 [2], the LipE is listed as 3.04.
The molecule `Cc1cscc1-c1ccc2nccc(Nc3ccc4scnc4c3)c2c1` [Compound 24, N-(6–(4-methylthiophen-3-yl)quinolin-4-yl)benzo[d]thiazol-5-amine] gave an IC50 against RIPK2 [1] of 19.6 ± 12 nM. The same molecule displayed a LipE at RIPK2 [2] of 2.37.
The matching figures for `c1cc(-c2ccc3nccc(Nc4ccc5scnc5c4)c3c2)c2cc[nH]c2c1` [Compound 26, N-(6-(1H-indol-4-yl)quinolin-4-yl)benzo[d]thiazol-5-amine]: 9.4 ± 1.1 nM and 5.00.
Regarding `Brc1ccc2nccc(Nc3ccccc3)c2c1` [Compound 1, 6-Bromo-N-phenylquinolin-4-amine], the IC50 on RIPK2 [1] was 243 ± 14.8 nM. This molecule also had a LipE on RIPK2 [2] of 2.57.
Take `COc1cc(Nc2ccnc3ccc(-c4ccccn4)cc23)cc(OC)c1OC` [Compound 33, 6-(Pyridin-2-yl)-N-(3,4,5-trimethoxyphenyl)quinolin-4-amine]: on RIPK2 [1], inhibition was half-maximal at 12.4 ± 8.9 nM (IC50). In addition, the LipE at RIPK2 [2] is 3.26.
For `COc1cc(Nc2ccnc3ccc(-c4cccnc4)cc23)cc(OC)c1OC` [Compound 32, 6-(Pyridin-3-yl)-N-(3,4,5-trimethoxyphenyl)quinolin-4-amine], on RIPK2 [1], the IC50 came to 2.4 ± 0.2 nM. The molecule further returned a LipE on RIPK2 [2] of 4.30. For the same molecule, the “RIPK1 IR@1µM (%)” value on RIPK1 stood at 19%.
For `COc1cc(Nc2ccnc3ccc(-c4c[nH]nc4C)cc23)cc(OC)c1OC` [Compound 38, 6–(3-Methyl-1H-pyrazol-4-yl)-N-(3,4,5-trimethoxyphenyl)quinolin-4-amine], the IC50 against RIPK2 [1] was 19.2 ± 0.7 nM. The same molecule showed a LipE at RIPK2 [2] of 3.79.
The matching figures for `Brc1ccc2nccc(Nc3ccc4cn[nH]c4c3)c2c1` [Compound 12, 6-Bromo-N-(1H-indazol-6-yl)quinolin-4-amine]: 22.2 ± 5.2 nM and 3.49.
As for `Cc1cnn(C)c1-c1ccc2nccc(Nc3ccc4scnc4c3)c2c1` [Compound 22, N-(6–(1,4-dimethyl-1H-pyrazol-5-yl)quinolin-4-yl)benzo[d]thiazol-5-amine], the IC50 against RIPK2 [1] turned out to be 19 ± 6.7 nM. On RIPK2 [2], this molecule registered a LipE of 3.86.
On RIPK2 [1], `Cn1cc(-c2ccc3nccc(Nc4ccc5scnc5c4)c3c2)cn1` [Compound 19, N-(6–(1-methyl-1H-pyrazol-4-yl)quinolin-4-yl)benzo[d]thiazol-5-amine] returned an IC50 of 16.4 ± 1.6 nM. Also, on RIPK2 [2], the LipE was found to be 3.08.
For `COc1cc(Nc2ccnc3ccc(-c4cncnc4)cc23)cc(OC)c1OC` [Compound 34, 6-(Pyrimidin-5-yl)-N-(3,4,5-trimethoxyphenyl)quinolin-4-amine], the IC50 at RIPK2 [1] was 11 ± 1.7 nM. At RIPK2 [2], this molecule gave a LipE of 4.58.
The corresponding values for `c1cc(Nc2ccc3scnc3c2)c2cc(-c3ccnc4[nH]ccc34)ccc2n1` [Compound 28, N-(6-(1H-pyrrolo[2,3-b]pyridin-4-yl)quinolin-4-yl)benzo[d]thiazol-5-amine] are 7.3 ± 3.5 nM and 3.46.
The matching figures for `c1ccc(-c2ccc3nccc(Nc4ccc5scnc5c4)c3c2)cc1` [Compound 18, N-(6-phenylquinolin-4-yl)benzo[d]thiazol-5-amine]: 24 ± 11.6 nM and 5.81.
Turning to `COc1cc(Nc2ccnc3ccc(-c4cnn(C)c4)cc23)cc(OC)c1OC` [Compound 36, 6–(1-Methyl-1H-pyrazol-4-yl)-N-(3,4,5-trimethoxyphenyl)quinolin-4-amine], the IC50 against RIPK2 [1] was determined as 7.2 ± 2.6 nM. At RIPK2 [2], this molecule showed a LipE of 3.67. The “RIPK1 IR@1µM (%)” value on RIPK1 was <1%.
Take `c1cc(Nc2ccc3scnc3c2)c2cc(-c3ccc4[nH]ccc4c3)ccc2n1` [Compound 25, N-(6-(1H-indol-5-yl)quinolin-4-yl)benzo[d]thiazol-5-amine]: the IC50 on RIPK2 [1] was 11.1 ± 3.6 nM. For the same molecule, the LipE at RIPK2 [2] amounted to 3.87.
The matching figures for `c1ccc2ncc(-c3ccc4nccc(Nc5ccc6scnc6c5)c4c3)cc2c1` [Compound 30, N-([3,6'-biquinolin]-4'-yl)benzo[d]thiazol-5-amine]: 41.7 ± 19 nM and 2.80.
For the molecule `CC(C)Oc1cccc(Nc2ccnc3ccc(Br)cc23)c1` [Compound 3, 6-Bromo-N-(3-isopropoxyphenyl)quinolin-4-amine], on RIPK2 [1], the IC50 was > 1000 nM and the “RIPK2 IC50” value was “loss of the activity”.
In turn, `COc1cc(Nc2ccnc3ccc(-c4ccncc4)cc23)cc(OC)c1OC` [Compound 31, 6-(Pyridin-4-yl)-N-(3,4,5-trimethoxyphenyl)quinolin-4-amine] gave an IC50 on RIPK2 [1] of 8.1 ± 3.9 nM. For the same molecule, the LipE on RIPK2 [2] is 3.87.
The corresponding values for `CC(=O)c1cccc(Nc2ccnc3ccc(Br)cc23)c1` [Compound 4, 1–(3-((6-Bromoquinolin-4-yl)amino)phenyl)ethan-1-one] are 92.5 ± 22.1 nM and 3.50.
The corresponding values for `Brc1ccc2nccc(Nc3ccncc3)c2c1` [Compound 9, 6-Bromo-N-(pyridin-4-yl)quinolin-4-amine] are 421 ± 106 nM and 3.24.
The matching figures for `Fc1cc(Nc2ccnc3ccc(Br)cc23)ccc1Cl` [Compound 5, 6-Bromo-N-(4-chloro-3-fluorophenyl)quinolin-4-amine]: 31.4 ± 6.2 nM and 2.78.
The molecule `COc1cc(Nc2ccnc3ccc(Br)cc23)cc(OC)c1OC` [Compound 6, 6-Bromo-N-(3,4,5-trimethoxyphenyl)quinolin-4-amine] returned an IC50 against RIPK2 [1] of 10.7 ± 0.1 nM. Besides, the LipE at RIPK2 [2] is on record as 3.63.
On RIPK2 [1], `c1ccc(-c2ccc3nccc(Nc4ccc5scnc5c4)c3c2)nc1` [Compound 16, N-(6-(pyridin-2-yl)quinolin-4-yl)benzo[d]thiazol-5-amine] had an IC50 of 3.6 ± 1.4 nM. Moreover, the LipE on RIPK2 [2] is on record as 4.11.
In the case of `Brc1ccc2nccc(Nc3ccc4scnc4c3)c2c1` [Compound 10, N-(6-bromoquinolin-4-yl)benzo[d]thiazol-5-amine], the IC50 on RIPK2 [1] worked out at 12.2 ± 2.5 nM. Moreover, on RIPK2 [2], the LipE worked out at 3.97.
The corresponding values for `c1ncc(-c2ccc3nccc(Nc4ccc5scnc5c4)c3c2)cn1` [Compound 17, N-(6-(pyrimidin-5-yl)quinolin-4-yl)benzo[d]thiazol-5-amine] are 1.5 ± 0.3 nM and 2.80.
With `c1cc(-c2ccc3nccc(Nc4ccc5scnc5c4)c3c2)c2cn[nH]c2c1` [Compound 27, N-(6-(1H-indazol-4-yl)quinolin-4-yl)benzo[d]thiazol-5-amine], at RIPK2 [1], the IC50 was 3.7 ± 0.4 nM.
For the molecule `COc1cc(Nc2ccnc3ccc(-c4cn[nH]c4)cc23)cc(OC)c1OC` [Compound 37, 6–(1 h-pyrazol-4-yl)-N-(3,4,5-trimethoxyphenyl)quinolin-4-amine], the IC50 at RIPK2 [1] is 14.5 ± 5.6 nM. The molecule further came in with a LipE at RIPK2 [2] of 4.22.
The corresponding values for `Brc1ccc2nccc(Nc3cccnc3)c2c1` [Compound 8, 6-Bromo-N-(pyridin-3-yl)quinolin-4-amine] are 151 ± 30.1 nM and 3.68.
The molecule `c1ccc2c(-c3ccc4nccc(Nc5ccc6scnc6c5)c4c3)cncc2c1` [Compound 29, N-(6-(isoquinolin-4-yl)quinolin-4-yl)benzo[d]thiazol-5-amine] showed an IC50 at RIPK2 [1] of 17.2 ± 2.3 nM. Besides, at RIPK2 [2], the LipE worked out at 3.81.
On to `COc1cccc(Nc2ccnc3ccc(Br)cc23)c1` [Compound 2, 6-Bromo-N-(3-methoxyphenyl)quinolin-4-amine], for which inhibition on RIPK2 [1] was half-maximal at 54.8 ± 3.4 nM (IC50). Further, the LipE at RIPK2 [2] was determined as 3.10.
The corresponding values for `COc1cc(Nc2ccnc3ccc(-c4cccc5[nH]ncc45)cc23)cc(OC)c1OC` [Compound 35, 6–(1 h-indazol-4-yl)-N-(3,4,5-trimethoxyphenyl)quinolin-4-amine] are 7.1 ± 4.7 nM and 3.24.

A word on the IC50: it is the midpoint of a concentration-inhibition curve. Low values mean greater potency in that assay, high ones weaker potency in that assay.
